Data set [1] concerns the target T1, LmTIM (triosephosphate isomerase from Leishmania mexicana) (Leishmania mexicana, UniProt P48499).
T1 construct: made in house; host or cells: Escherichia coli
In words: Inhibition of triosephosphate isomerase. It is filed as biochemical. The conditions noted are these: read-out: Percentage of Inhibition LmTIM. As for the experimental part:
Compounds were dissolved in DMSO. […] The experiments were performed in triplicate.

Data set [2] in a line: Drug bioconcentration in zebrafish embryos, UV-visible spectroscopy. It is filed as in vivo. The conditions noted are these: whole embryo extract, 25 µM, incubation 25 µM, volume of measurement 100 µL, read-out: conc. in zebrafish embryos. As for the experimental part: To get an approximation of the distribution and concentration of GAT1033 (the lipophilic compound) in the embryos, in the presence and absence of the chorion, we conducted a first analysis visualizing the embryos by laser scanning confocal microscopy. […] We then quantified the internal concentration of GAT1033 by UV-visible spectroscopy (Figure 9). To do this, we incubated embryos, with and without chorion, with a fixed dose of the compound for different extensions of time. After this, we performed a standard chemical extraction and quantified using spectrophotometry and checking the integrity of the molecules by thin layer chromatography.
Following the same conditions as those of the embryo toxicity test, five embryos were incubated per well in 6-well plates with 5 mL of 25 μM GAT1033. Embryos were incubated with and without chorion, starting at 6 hpf. The incubation medium containing the compound was exchanged daily. Every 24 h, 30 embryos having the same conditions were taken to extract the compound for quantitation. The embryos were washed three times with aquarium water and then centrifuged at low speed to pull out the total remaining solvent. The embryos were then resuspended in 1 mL of aquarium water and lysed by sonication (Omni Sonic Ruptor Omni Sonic Ruptor 400 Ultrasonic Homogenizer) on an ice bath with 4-times half-intensity-15-second pulses, resting 5 seconds. The extract was incubated with 1 mL of methanol/chloroform (2:1) for 5 min at 25 °C, followed by five chloroform extractions. The organic phase was dried over anhydrous sodium sulfate and evaporated in vacuo. The crude extract was dissolved in 100 µL acetonitrile (Merck, HPLC grade) for spectrophotometric measurements (Spectrophotometer double beam UV-Vis model Cary 60 Agilent Cary WinUV). The calibration curve and all of the experiments were performed with GAT1033 under the same conditions. For this, we used the Beer–Lambert–Bouguer Law (BLB law). Optical data for GAT1033 are: ε = (14.7 ± 0.5) cm^−1mM^−1, λmax = 379 nm, emission 530 nm.

Data set [3] relates to L. braziliensis promastigotes. Put plainly: Leishmanicidal activity on promastigotes, resazurin. It is filed as cell-based, Leishmania braziliensis. Put shortly:
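Promastigotes (2 × 10^6/well) in Schneider's medium with 20% FBS treated with compound dilutions for 48 h at 26 °C. Resazurin reduction read at 570 and 600 nm; IC50 from duplicate experiments, triplicate concentrations.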

In data set [4] the test system is T. cruzi epimastigotes, Tulahuen 2 strain (genotype TcVI). The note with it: cited from earlier work.
The subject of data set [5] is J774.1 murine macrophages. The conditions noted are these: J774.1; read-out: IC50 ± SD Murine Macrophages; cited from earlier work.

Read-outs that look alike come from different tables or passages of the source. Marks after values point to notes of the source that are not given here.

T1 sequence (P48499 whole entry): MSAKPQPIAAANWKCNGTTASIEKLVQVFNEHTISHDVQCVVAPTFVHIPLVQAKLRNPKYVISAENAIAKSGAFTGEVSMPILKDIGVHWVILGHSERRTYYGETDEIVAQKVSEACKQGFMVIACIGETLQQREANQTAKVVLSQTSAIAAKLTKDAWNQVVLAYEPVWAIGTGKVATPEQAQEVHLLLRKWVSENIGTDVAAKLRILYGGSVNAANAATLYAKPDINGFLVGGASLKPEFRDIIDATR

Consider `C=CCn1c(-c2ccc(Cl)cc2)cs\c1=N/N=C/C=C/c1ccco1` [GAT1033], for which the inhibition at 100 µM in data set [1] is 0%. For the same compound, the concentration at 24 h in data set [2] (with chorion) amounted to 300 nM; in data set [2] (without chorion), 400 nM. Besides, the concentration at 48 h in data set [2] (with chorion) was 4.8 µM; in data set [2] (without chorion), 7.3 µM. The concentration at 72 h turned out to be 1.8 µM in data set [2] (with chorion) and 8.1 µM in data set [2] (without chorion). The IC50 in data set [3] (Leishmania braziliensis, 48 h, read-out: IC50 ± SD Promastigotes L. braziliensis) is 7 ± 1 µM; in data set [4] (read-out: IC50 ± SD Epimastigotes T. cruzi), 1600 ± 500 nM; in data set [5], 60 ± 6 µM. Also, the “SI NCTC/ L. braziliensis” value in data set [3] (ratio IC50 mammalian cell / IC50 parasite (promastigotes)) amounted to 58. The “SI J774.1/ T. cruzi” value in data set [4] (ratio IC50 mammalian cell / IC50 parasite (epimastigotes)) was 37 ^a.

The values are drawn from paper PMC6154605, “Multi-Anti-Parasitic Activity of Arylidene Ketones and Thiazolidene Hydrazines against Trypanosoma cruzi and Leishmania spp” (Molecules : A Journal of Synthetic Chemistry and Natural …, 2017).
